Test results: US8461141B2, “Preventive or therapeutic drug for Alzheimer-type dementia” (Mochida Pharmaceutical Co., Ltd., priority 2005, dated 2013)
Several values for one entry are separate records, joined by “and”; a condition that tells them apart may be missing. Identical values can stand only once.

Legend:
[1] = system: patients diagnosed with Alzheimer-type dementia; experiment: Hasegawa Dementia Scale and symptom observation in patients with Alzheimer-type dementia; format: in vivo, human; conditions: for Hasegawa Dementia Scale After 2 months: individual Alzheimer-type dementia patients, EPA-E alone 300 or 600 mg/day for 2 months, scale of 30
Procedure: (§1) Each patient was evaluated for the improvement of the dementia by Hasegawa Dementia Scale at the start of the test, 2 months after the start of the test (2 months from the start of administering ethyl icosapentate), and 6 months after the start of the test (4 months after the start of the combined administration of the ethyl icosapentate and the levothyroxine sodium).

[2] = system: patients diagnosed with cerebrovascular dementia; experiment: Hasegawa Dementia Scale and symptom observation in patients with cerebrovascular dementia (Reference Example); format: in vivo, human; conditions: for Hasegawa Dementia Scale After 2 months: individual cerebrovascular dementia patients, EPA-E alone 300 or 600 mg/day for 2 months
Procedure: as §1

Compound: CC/C=C\C/C=C\C/C=C\C/C=C\C/C=C\CCCC(=O)OCC [EPA-E, ethyl icosapentate]
- Score of the Hasegawa Dementia Scale (range) 2 months after the start of the test ([1]; 14 Alzheimer-type dementia patients, EPA-E alone 300-600 mg/day): (7-17)
- Score of the Hasegawa Dementia Scale (average ± standard deviation) 2 months after the start of the test ([1]; 14 Alzheimer-type dementia patients, EPA-E alone 300-600 mg/day, at the start 10.0 ± 3.5): 11.4 ± 3.0
- Change in the scores of the Hasegawa Dementia Scale, in words ([1]; Alzheimer-type dementia patients, sole administration of ethyl icosapentate 300 to 600 mg/day for 2 months): no substantial change
- Hasegawa Dementia Scale After 2 months ([1]; EPA-E 300 mg/day): 14 and 12 and 11 and 10 and 7 and 9
- Hasegawa Dementia Scale After 2 months ([1]; EPA-E 600 mg/day): 7 and 8 and 11 (2×) and 17 and 13 and 15 and 14
- Score of the Hasegawa Dementia Scale (range) 2 months after the start of the test ([2]; 10 cerebrovascular dementia patients, EPA-E alone 300-600 mg/day): (9-15)
- Score of the Hasegawa Dementia Scale (average ± standard deviation) 2 months after the start of the test ([2]; 10 cerebrovascular dementia patients, EPA-E alone 300-600 mg/day, at the start 10.4 ± 1.7): 11.2 ± 1.9
- Hasegawa Dementia Scale After 2 months ([2]; EPA-E 300 mg/day): 13 and 10 (2×) and 12
- Hasegawa Dementia Scale After 2 months ([2]; EPA-E 600 mg/day): 15 and 11 (2×) and 12 and 9 (2×)
